The source of these data is EP0586592B1, “INSULIN AND AMYLIN CONTAINING COMPOSITION FOR THE TREATMENT OF INSULIN DEFICIENT MAMMALS” (AMYLIN PHARMACEUTICALS, INC., priority 1991, dated 2000).

The subject of this assay is rat soleus muscle. The format is cell-based. The conditions noted are these: 4 h. As to the method: Male Harlan Sprague Dawley rats of approximately 200 g mass were used in order to maintain soleus muscle mass less than 40 mg. The animals were fasted for 4 hours prior to sacrifice by decapitation. The skin was stripped from the lower limb which was then pinned out on cork board. The tendo achilles was cut just above os […]. gastrocnemius reflected out from the posterior aspect of the tibia. M. soleus, a small 15-20 mm long, 0.5 mm thick flat muscle on the bone surface of m. gastrocnemius was then stripped clear and the perimysium cleaned off using fine scissors and forceps. M. soleus was then split into equal parts using a blade passed antero-posteriorly through the belly of the muscle to obtain a total of 4 muscle strips from each animal. […] Methods used to determine the nature and purity of rat and human amylin included quantitative amino acid analysis, gas phase amino acid sequencing, reverse phase HPLC and fast-atom-bombardment mass spectrometry. […] The concentration of human amylin present in the medium at the end of the incubation was determined by radioimmunoassay in surfactant-containing buffer. For both human and rat amylin, the actual mass added to the incubation medium was determined by quantitative amino-acid analysis. […] The remaining glycogen was redissolved in 1 mL water and 4 mL scintillation fluid and counted for ^14C. […]

The EC50 is the midpoint of the concentration-response curve. Higher therefore signals weaker potency.

The compound `CC[C@H](C)[C@H](NC(=O)[C@H](C)NC(=O)CNC(=O)[C@H](Cc1ccccc1)NC(=O)[C@H](CC(N)=O)NC(=O)[C@H](CC(N)=O)NC(=O)[C@H](CO)NC(=O)[C@H](CO)NC(=O)[C@H](Cc1c[nH]cn1)NC(=O)[C@@H](NC(=O)[C@H](CC(C)C)NC(=O)[C@H](Cc1ccccc1)NC(=O)[C@H](CC(N)=O)NC(=O)[C@H](C)NC(=O)[C@H](CC(C)C)NC(=O)[C@H](CCCNC(=N)N)NC(=O)[C@H](CCC(N)=O)NC(=O)[C@@H](NC(=O)[C@H](C)NC(=O)[C@@H]1CSSC[C@H](NC(=O)[C@@H](N)CCCCN)C(=O)N[C@@H](CC(N)=O)C(=O)N[C@@H]([C@@H](C)O)C(=O)N[C@@H](C)C(=O)N[C@@H]([C@@H](C)O)C(=O)N1)[C@@H](C)O)C(C)C)C(=O)N[C@@H](CC(C)C)C(=O)N[C@@H](CO)C(=O)N[C@@H](CO)C(=O)N[C@H](C(=O)N[C@@H](CC(N)=O)C(=O)N[C@H](C(=O)NCC(=O)N[C@@H](CO)C(=O)N[C@@H](CC(N)=O)C(=O)N[C@H](C(=O)N[C@@H](Cc1ccc(O)cc1)C(N)=O)[C@@H](C)O)C(C)C)[C@@H](C)O` [human amylin] came in with an EC50 of 0.438 nM.
